Like-named read-outs stand apart in the source and are kept apart here. Bounds are passed on as bounds.

The target of this assay is T1, STAT6 (Homo sapiens, UniProt P42226).
T1 construct: endogenous in cells; host or cells: MOLM-16, KU-812, SKNO1, MB231, L1236
T1 sequence (P42226 1-847): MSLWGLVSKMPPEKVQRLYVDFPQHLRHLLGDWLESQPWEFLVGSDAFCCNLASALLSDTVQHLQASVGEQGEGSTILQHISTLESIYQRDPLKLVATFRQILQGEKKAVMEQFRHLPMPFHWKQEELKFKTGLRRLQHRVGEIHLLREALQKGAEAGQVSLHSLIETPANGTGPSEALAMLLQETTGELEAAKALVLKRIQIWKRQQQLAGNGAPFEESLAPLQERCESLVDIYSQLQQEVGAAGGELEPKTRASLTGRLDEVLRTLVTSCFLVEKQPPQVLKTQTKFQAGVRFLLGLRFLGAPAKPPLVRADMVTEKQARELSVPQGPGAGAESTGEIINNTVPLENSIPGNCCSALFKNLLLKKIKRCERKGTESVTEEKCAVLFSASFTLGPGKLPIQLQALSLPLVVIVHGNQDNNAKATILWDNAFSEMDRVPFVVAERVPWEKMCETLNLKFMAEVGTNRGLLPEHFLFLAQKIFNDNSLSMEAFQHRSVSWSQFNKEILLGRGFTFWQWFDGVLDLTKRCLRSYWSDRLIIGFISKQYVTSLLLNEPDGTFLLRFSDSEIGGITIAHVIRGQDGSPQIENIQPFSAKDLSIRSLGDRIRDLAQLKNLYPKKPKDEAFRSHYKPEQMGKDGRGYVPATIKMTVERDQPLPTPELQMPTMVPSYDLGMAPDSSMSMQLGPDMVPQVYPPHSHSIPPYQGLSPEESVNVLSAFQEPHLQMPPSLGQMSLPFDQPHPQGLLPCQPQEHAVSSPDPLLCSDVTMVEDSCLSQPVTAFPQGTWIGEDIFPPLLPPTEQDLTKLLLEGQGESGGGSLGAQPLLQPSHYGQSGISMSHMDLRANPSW
The assay can be described thus: Immunoblotting (Western blot) analysis of STAT6 degradation efficiency of degraders in treated cells. Format: cell-based. A digest of the protocol:
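Protein levels of STAT5 and STAT6 were assessed in cells cultured at 37 °C in 10% FBS medium after compound exposure, by quantitative fluorescent Western blotting normalised to equal loading and referenced to GAPDH.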

Setting [1] is: MOLM-16 cells, class symbols, read-out: DC50 S6 MOLM-16.
Setting [2] is: L1236 cells, read-out: DC50 S6 L1236.

For orientation: DC50 means the midpoint of the concentration-degradation curve. Turning to `CC(C)(C)[C@H](NC(=O)c1cc2cc(C(F)(F)P(=O)(O)O)ccc2s1)C(=O)N1C[C@@H](OCC(=O)NCCC#Cc2cccc3c2C(=O)N(C2CCC(=O)NC2=O)C3=O)C[C@H]1C(=O)N1CCC[C@H](c2ccccc2)C1` (stereo partly drawn) [Compound 495, ((2-(((2S)-1-((2S,4S)-4-(2-((4-(2-(2,6-dioxopiperidin-3-yl)-1,3-dioxoisoindolin-4-yl)but-3-yn-1-yl)amino)-2-oxoethoxy)-2-((R)-3-phenylpiperidine-1-carbonyl)pyrrolidin-1-yl)-3,3-dimethyl-1-oxobutan-2-yl)carbamoyl)benzo[b]thiophen-5-yl)difluoromethyl)phosphonic acid], under setting [1], the DC50 was over 10 µM. `Cc1ncsc1-c1ccc([C@H](C)NC(=O)[C@@H]2C[C@@H](O)CN2C(=O)[C@@H](NC(=O)CCCCCNC(=O)CC(=O)N2CCN(C(=O)[C@@H](NC(=O)c3cc4cc(C(F)(F)P(=O)(O)O)ccc4s3)C(C)(C)C)[C@H](C(=O)N3CCO[C@H](c4ccccc4)C3)C2)C(C)(C)C)cc1` [Compound 447, (difluoro(2-(((S)-1-((S)-4-(3-((6-(((S)-1-((2S,4R)-4-hydroxy-2-(((S)-1-(4-(4-methylthiazol-5-yl)phenyl)ethyl)carbamoyl)pyrrolidin-1-yl)-3,3-dimethyl-1-oxobutan-2-yl)amino)-6-oxohexyl)amino)-3-oxopropanoyl)-2-((R)-2-phenylmorpholine-4-carbonyl)piperazin-1-yl)-3,3-dimethyl-1-oxobutan-2-yl)carbamoyl)benzo[b]thiophen-5-yl)methyl)phosphonic acid]: the half-maximal degradation concentration (DC50) is over 10 µM under setting [2] and over 10 µM under setting [1]. Regarding `Cc1ncsc1-c1ccc([C@H](C)NC(=O)[C@@H]2C[C@@H](O)CN2C(=O)[C@@H](NC(=O)CCNC(=O)CO[C@H]2C[C@@H](C(=O)N3CCC[C@H](c4ccccc4)C3)N(C(=O)[C@@H](NC(=O)c3cc4cc(C(F)(F)P(=O)(O)O)ccc4s3)C(C)(C)C)C2)C(C)(C)C)cc1` [Compound 435, (difluoro(2-(((S)-1-((2S,4S)-4-(2-((3-(((S)-1-((2S,4R)-4-hydroxy-2-(((S)-1-(4-(4-methylthiazol-5-yl)phenyl)ethyl)carbamoyl)pyrrolidin-1-yl)-3,3-dimethyl-1-oxobutan-2-yl)amino)-3-oxopropyl)amino)-2-oxoethoxy)-2-((R)-3-phenylpiperidine-1-carbonyl)pyrrolidin-1-yl)-3,3-dimethyl-1-oxobutan-2-yl)carbamoyl)benzo[b]thiophen-5-yl)methyl)phosphonic acid], the DC50 runs as follows: under setting [2], over 10 µM; under setting [1], over 10 µM. Turning to `CC(C)(C)[C@H](NC(=O)c1cc2cc(C(F)(F)P(=O)(O)O)ccc2s1)C(=O)N1CCN(C(=O)CC(=O)NCCCCCCCCCC#Cc2cccc3c2C(=O)N(C2CCC(=O)NC2=O)C3=O)C[C@H]1C(=O)N1CCC[C@H](c2ccccc2)C1` (stereo partly drawn) [Compound 533, ((2-(((2S)-1-((2S)-4-(3-((11-(2-(2,6-dioxopiperidin-3-yl)-1,3-dioxoisoindolin-4-yl)undec-10-yn-1-yl)amino)-3-oxopropanoyl)-2-((R)-3-phenylpiperidine-1-carbonyl)piperazin-1-yl)-3,3-dimethyl-1-oxobutan-2-yl)carbamoyl)benzo[b]thiophen-5-yl)difluoromethyl)phosphonic acid], the half-maximal degradation concentration (DC50) under setting [1] is over 10 µM. As for `CC(C)(C)[C@H](NC(=O)c1cc2cc(C(F)(F)P(=O)(O)O)ccc2s1)C(=O)N1C[C@@H](OCC(=O)NCC#Cc2ccc3c(c2)C(=O)N(C2CCC(=O)NC2=O)C3=O)C[C@H]1C(=O)N1CCC[C@H](c2ccccc2)C1` (stereo partly drawn) [Compound 494, ((2-(((2S)-1-((2S,4S)-4-(2-((3-(2-(2,6-dioxopiperidin-3-yl)-1,3-dioxoisoindolin-5-yl)prop-2-yn-1-yl)amino)-2-oxoethoxy)-2-((R)-3-phenylpiperidine-1-carbonyl)pyrrolidin-1-yl)-3,3-dimethyl-1-oxobutan-2-yl)carbamoyl)benzo[b]thiophen-5-yl)difluoromethyl)phosphonic acid], the DC50 under setting [1] was over 10 µM. Regarding `Cc1cc([C@H](C(=O)N2C[C@H](O)C[C@H]2C(=O)N[C@@H](CC(=O)NCCOCCOCCOCCNC(=O)CCN(C(=O)[C@@H]2CCCN2C(=O)[C@@H](NC(=O)c2cc3cc(C(F)(F)P(=O)(O)O)ccc3s2)C(C)(C)C)c2ccc(Br)cc2)c2ccc(-c3scnc3C)cc2)C(C)C)on1` [Compound 409, ((2-(((S)-1-((S)-2-((4-bromophenyl)((S)-1-((2S,4R)-4-hydroxy-1-((R)-3-methyl-2-(3-methylisoxazol-5-yl)butanoyl)pyrrolidin-2-yl)-3-(4-(4-methylthiazol-5-yl)phenyl)-1,5,19-trioxo-9,12,15-trioxa-2,6,18-triazahenicosan-21-yl)carbamoyl)pyrrolidin-1-yl)-3,3-dimethyl-1-oxobutan-2-yl)carbamoyl)benzo[b]thiophen-5-yl)difluoromethyl)phosphonic acid], the DC50 (MB231 cells, read-out: DC50 S6 MB231) was over 10 µM. `Cc1ncsc1-c1ccc([C@H](CC(=O)NCCCCCCCCCC(=O)N[C@H]2C[C@@H](C(=O)N3CCO[C@H](c4ccccc4)C3)N(C(=O)[C@@H](NC(=O)c3cc4cc(C(F)(F)P(=O)(O)O)ccc4s3)C(C)(C)C)C2)NC(=O)[C@@H]2C[C@@H](O)CN2C(=O)[C@@H](NC(=O)C2(F)CC2)C(C)(C)C)cc1` [Compound 572, (difluoro(2-(((S)-1-((2S,4S)-4-(10-((S)-3-((2S,4R)-1-((S)-2-(1-fluorocyclopropane-1-carboxamido)-3,3-dimethylbutanoyl)-4-hydroxypyrrolidine-2-carboxamido)-3-(4-(4-methylthiazol-5-yl)phenyl)propanamido)decanamido)-2-((R)-2-phenylmorpholine-4-carbonyl)pyrrolidin-1-yl)-3,3-dimethyl-1-oxobutan-2-yl)carbamoyl)benzo[b]thiophen-5-yl)methyl)phosphonic acid]: under setting [1], the half-maximal degradation concentration (DC50) was over 10 µM. Consider `CC(C)(C)[C@H](NC(=O)c1cc2cc(C(F)(F)P(=O)(O)O)ccc2s1)C(=O)N1C[C@@H](OCC(=O)NCCCCCC#Cc2ccc3c(c2)C(=O)N(C2CCC(=O)NC2=O)C3=O)C[C@H]1C(=O)N1CCO[C@H](c2ccccc2)C1` (stereo partly drawn) [Compound 488, ((2-(((2S)-1-((2S,4S)-4-(2-((7-(2-(2,6-dioxopiperidin-3-yl)-1,3-dioxoisoindolin-5-yl)hept-6-yn-1-yl)amino)-2-oxoethoxy)-2-((R)-2-phenylmorpholine-4-carbonyl)pyrrolidin-1-yl)-3,3-dimethyl-1-oxobutan-2-yl)carbamoyl)benzo[b]thiophen-5-yl)difluoromethyl)phosphonic acid], for which the half-maximal degradation concentration (DC50) under setting [1] was over 10 µM. With `CC(C)(C)[C@H](NC(=O)c1cc2cc(C(F)(F)P(=O)(O)O)ccc2s1)C(=O)N1Cc2cc(OCC(=O)NCCCCCCCCC#Cc3ccc4c(c3)C(=O)N(C3CCC(=O)NC3=O)C4=O)ccc2C[C@H]1C(=O)N1CCC[C@H](c2ccccc2)C1` (stereo partly drawn) [Compound 560, ((2-(((2S)-1-((3S)-7-(2-((10-(2-(2,6-dioxopiperidin-3-yl)-1,3-dioxoisoindolin-5-yl)dec-9-yn-1-yl)amino)-2-oxoethoxy)-3-((R)-3-phenylpiperidine-1-carbonyl)-3,4-dihydroisoquinolin-2(1H)-yl)-3,3-dimethyl-1-oxobutan-2-yl)carbamoyl)benzo[b]thiophen-5-yl)difluoromethyl)phosphonic acid], the DC50 under setting [1] is over 10 µM.

Source of the values: patent US20230295197A1, “STAT5 and STAT6 Degraders and Uses Thereof” (REGENTS OF THE UNIVERSITY OF MICHICAN, priority 2022, published 2023).
